Experimental findings from US9598423B2 (BRISTOL-MYERS SQUIBB COMPANY, priority 2013, dated 2017) are described below.

For one experiment, the target named is CK1δ (Homo sapiens (Human), UniProt P48730). As to the kind of experiment: CK1δ kinase assay (Caliper LABCHIP electrophoretic separation of fluoresceinated peptide substrate and product). Format: biochemical. The conditions noted are these: 200 pM CK1δ, 50 μM ATP, 1.5 μM peptide substrate, 22 hours at room temperature; read-out: CK1δ (IC50). Put shortly:
(§1)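 Kinase reactions ran 22 h at room temperature, were stopped with EDTA, and phosphorylated product was separated electrophoretically from unphosphorylated fluoresceinated peptide. Compounds were tested at eleven concentrations from 10 mM DMSO stocks. IC50 by non-linear regression.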

Another experiment addresses CK1ε (Homo sapiens (Human), UniProt P49674). Put plainly: CK1ε kinase assay (Caliper LABCHIP electrophoretic separation of fluoresceinated peptide substrate and product). Format: biochemical. The conditions noted are these: 200 pM CK1ε, 50 μM ATP, 1.5 μM peptide substrate, 22 hours at room temperature; read-out: CK1ε (IC50). Put shortly:
as §1

Chain of CK1ε (P49674 whole entry): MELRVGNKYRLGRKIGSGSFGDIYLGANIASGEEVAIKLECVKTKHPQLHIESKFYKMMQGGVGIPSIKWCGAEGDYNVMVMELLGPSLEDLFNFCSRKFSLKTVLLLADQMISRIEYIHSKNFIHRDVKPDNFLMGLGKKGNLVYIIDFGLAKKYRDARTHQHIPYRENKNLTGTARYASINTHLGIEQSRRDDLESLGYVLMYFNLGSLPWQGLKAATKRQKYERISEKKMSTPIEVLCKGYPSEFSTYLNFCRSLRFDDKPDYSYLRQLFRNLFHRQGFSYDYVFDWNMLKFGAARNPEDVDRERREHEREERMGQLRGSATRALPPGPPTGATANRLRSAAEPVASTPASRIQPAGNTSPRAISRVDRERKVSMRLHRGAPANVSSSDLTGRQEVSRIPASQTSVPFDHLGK
Chain of CK1δ (P48730 whole entry): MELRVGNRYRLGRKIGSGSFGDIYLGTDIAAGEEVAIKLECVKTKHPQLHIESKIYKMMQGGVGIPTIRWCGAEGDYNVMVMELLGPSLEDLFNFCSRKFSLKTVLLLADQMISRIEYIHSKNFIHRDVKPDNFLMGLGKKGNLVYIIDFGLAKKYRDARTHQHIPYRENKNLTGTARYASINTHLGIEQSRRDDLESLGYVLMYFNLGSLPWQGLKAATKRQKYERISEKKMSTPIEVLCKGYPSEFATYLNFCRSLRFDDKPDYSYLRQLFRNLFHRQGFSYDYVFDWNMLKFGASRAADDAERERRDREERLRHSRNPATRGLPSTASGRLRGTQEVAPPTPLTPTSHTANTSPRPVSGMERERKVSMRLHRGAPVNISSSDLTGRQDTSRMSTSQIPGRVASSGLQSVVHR

For orientation: IC50 means the midpoint of a concentration-inhibition curve. With `NC(=O)c1c(-c2ccc(Cl)c(Cl)c2)nn2c1CN(C(=O)Nc1ccc(Cl)c(Cl)c1)CC2` [Compound 209], the IC50 at CK1δ and on CK1ε was 0.01 to 10 nM throughout.
`NC(=O)c1c(-c2cccc(F)c2)nn2c1CN(C(=O)Nc1cc(F)c(F)c(F)c1)CC2` [Compound 70, 2-(3-Fluorophenyl)-N^5-(3,4,5-trifluorophenyl)-6,7-dihydropyrazolo[1,5-a]pyrazine-3,5(4H)-dicarboxamide]: the IC50 on CK1δ and on CK1ε was 0.01 to 10 nM throughout.
With `N#Cc1ccc(NC(=O)N2CCn3nc(-c4cc(Cl)ccc4Cl)c(C(N)=O)c3C2)cc1` [Compound 272, N^5-(4-Cyanophenyl)-2-(2,5-dichlorophenyl)-6,7-dihydropyrazolo[1,5-a] pyrazine-3,5(4H)-dicarboxamide], the IC50 at CK1δ and at CK1ε was 0.01 to 10 nM each time.
On to `N#Cc1ccc(NC(=O)N2CCn3nc(-c4ccc(F)c(Cl)c4)c(C(N)=O)c3C2)cc1` [Compound 172], for which the IC50 at CK1δ and at CK1ε was 0.01 to 10 nM throughout.
For `NC(=O)c1c(-c2ccc(F)c(F)c2)nn2c1CN(C(=O)Nc1ccc3c(c1)CS(=O)(=O)C3)CC2` [Compound 234, 2-(3,4-Difluorophenyl)-N^5-(2,2-dioxido-1,3-dihydrobenzo[c]thiophen-5-yl)-6,7-dihydropyrazolo [1,5-a]pyrazine-3,5(4H)-dicarboxamide], the IC50 at CK1δ and on CK1ε was 0.01 to 10 nM throughout.
For `Cc1cc(NC(=O)N2CCn3nc(-c4cc(F)c5cn[nH]c5c4)c(C(N)=O)c3C2)ccc1C#N` [Compound 325, N^5-(4-Cyano-3-methylphenyl)-2-(4-fluoro-1H-indazol-6-yl)-6,7-dihydropyrazolo[1,5-a]pyrazine-3,5(4H)-dicarboxamide], the IC50 on CK1δ and at CK1ε was 0.01 to 10 nM in each case.
As for `CN(C)C(=O)c1cccc(-c2nn3c(c2C(N)=O)CN(C(=O)Nc2ccc(C#N)cc2)CC3)c1` [Compound 283, N^5-(4-Cyanophenyl)-2-(3-(dimethylcarbamoyl)phenyl)-6,7-dihydropyrazolo[1,5-a] pyrazine-3,5(4H)-dicarboxamide], the IC50 at CK1δ and at CK1ε was 100 to 2000 nM throughout.
As to `N#Cc1ccc(NC(=O)N2CCn3nc(-c4ccc(Cl)c(Cl)c4)c(C(N)=O)c3C2)cc1C(F)(F)F` [Compound 208, N^5-(4-Cyano-3-(trifluoromethyl)phenyl)-2-(3,4-dichlorophenyl)-6,7-dihydropyrazolo[1,5-a] pyrazine-3,5(4H)-dicarboxamide], the IC50 on CK1δ and at CK1ε was 0.01 to 10 nM throughout.
Regarding `CC(C)(C)c1ccc(NC(=O)N2CCn3nc(-c4cccc(F)c4)c(C(N)=O)c3C2)cc1` [Compound 63, N^5-(4-(tert-Butyl)phenyl)-2-(3-fluorophenyl)-6,7-dihydropyrazolo[1,5-a]pyrazine-3,5(4H)-dicarboxamide], the IC50 on CK1δ and on CK1ε was 0.01 to 10 nM in each case.
With `NC(=O)c1c(-c2ccc(F)c(Cl)c2)nn2c1CN(C(=O)Nc1ccc(F)c(Cl)c1)CC2` [Compound 185, N^5,2-Bis(3-chloro-4-fluorophenyl)-6,7-dihydropyrazolo[1,5-a] pyrazine-3,5(4H)-dicarboxamide], the IC50 at CK1δ and on CK1ε was 0.01 to 10 nM throughout.
In the case of `CC(=O)N1CC2(C1)CN(C(=O)Nc1ccc(C#N)cc1)Cc1c(C(N)=O)c(-c3ccc(F)c(Cl)c3)nn12` [Compound A89, 1-Acetyl-2′-(3-chloro-4-fluorophenyl)-N^5′-(4-cyanophenyl)-4′H-spiro[azetidine-3,7′-pyrazolo[1,5-a]pyrazine]-3′,5′(6′H)-dicarboxamide], the IC50 at CK1δ and on CK1ε was 0.01 to 10 nM in each case.
Consider `Cc1cccc(-c2nn3c(c2C(N)=O)CN(C(=O)Nc2ccc(C#N)cc2)CC3)c1` [Compound 289, N^5-(4-Cyanophenyl)-2-(m-tolyl)-6,7-dihydropyrazolo [1,5-a]pyrazine-3,5(4H)-dicarboxamide], for which the IC50 on CK1δ and at CK1ε was 0.01 to 10 nM each time.
Take `Cc1cc(NC(=O)N2CCn3nc(-c4cc(Cl)c5ocnc5c4)c(C(N)=O)c3C2)ccc1C#N` [Compound 310, 2-(7-Chlorobenzo[d]oxazol-5-yl)-N^5-(4-cyano-3-methylphenyl)-6,7-dihydropyrazolo[1,5-a]pyrazine-3,5(4H)-dicarboxamide]: the IC50 at CK1δ and at CK1ε was 0.01 to 10 nM throughout.
Consider `N#Cc1ccc(NC(=O)N2Cc3c(C(N)=O)c(-c4ccc(F)c(Cl)c4)nn3CC2C(F)(F)F)cc1` (single isomer, unassigned) [Compound 336, 2-(3-Chloro-4-fluorophenyl)-N^5-(4-cyanophenyl)-6-(trifluoromethyl)-6,7-dihydropyrazolo[1,5-a]pyrazine-3,5(4H)-dicarboxamide], for which the IC50 at CK1δ and at CK1ε was 0.01 to 10 nM throughout.
As to `Cc1cc(F)cc(-c2nn3c(c2C(N)=O)CN(C(=O)Nc2ccc(C#N)c(Cl)c2)CC3)c1` [Compound 230, N^5-(3-Chloro-4-cyanophenyl)-2-(3-fluoro-5-methylphenyl)-6,7-dihydropyrazolo[1,5-a] pyrazine-3,5(4H)-dicarboxamide], the IC50 at CK1δ and at CK1ε was 0.01 to 10 nM in each case.
On to `N#Cc1ccc(NC(=O)N2CCn3nc(-c4ccc(F)c(F)c4)c(C(N)=O)c3C2)cc1F` [Compound 236, N^5-(4-Cyano-3-fluorophenyl)-2-(3,4-difluorophenyl)-6,7-dihydropyrazolo[1,5-a] pyrazine-3,5(4H)-dicarboxamide], for which the half-maximal inhibitory concentration (IC50) on CK1δ and at CK1ε was 0.01 to 10 nM each time.
As to `NC(=O)c1c(-c2cccc(Cl)c2)nn2c1CN(C(=O)Nc1ccc(Cl)nc1)CC2` [Compound 171, 2-(3-Chlorophenyl)-N^5-(6-chloropyridin-3-yl)-6,7-dihydropyrazolo[1,5-a] pyrazine-3,5(4H)-dicarboxamide], the IC50 on CK1δ and at CK1ε was 0.01 to 10 nM each time.
Turning to `NC(=O)c1c(-c2cccc(F)c2)nn2c1CN(C(=O)Nc1ccc(Oc3ccccc3)cc1)CC2` [Compound 58, 2-(3-Fluorophenyl)-N^5-(4-phenoxyphenyl)-6,7-dihydropyrazolo[1,5-a]pyrazine-3,5(4H)-dicarboxamide], the IC50 at CK1δ and at CK1ε was 0.01 to 10 nM throughout.
Take `CC1Cn2nc(-c3ccc(Cl)c(Cl)c3)c(C(N)=O)c2CN1C(=O)Nc1ccc(C#N)cc1` (single isomer, unassigned) [Compound 333, N^5-(4-Cyanophenyl)-2-(3,4-dichlorophenyl)-6-methyl-6,7-dihydropyrazolo[1,5-a]pyrazine-3,5(4H)-dicarboxamide]: the IC50 at CK1δ and at CK1ε was 0.01 to 10 nM throughout.
On to `NC(=O)c1c(-c2ccc(Cl)c(Cl)c2)nn2c1CN(C(=O)Nc1cc(Cl)cc(Cl)c1)CC2` [Compound 206], for which the IC50 on CK1δ and at CK1ε was 0.01 to 10 nM each time.
Regarding `CC1Cn2nc(-c3ccc(F)c(Cl)c3)c(C(N)=O)c2CN1C(=O)Nc1ccc(C#N)cc1` (single isomer, unassigned) [Compound 330, 2-(3-Chloro-4-fluorophenyl)-N^5-(4-cyanophenyl)-6-methyl-6,7-dihydropyrazolo[1,5-a]pyrazine-3,5(4H)-dicarboxamide], the IC50 on CK1δ and at CK1ε was 0.01 to 10 nM each time.
